Experimental data reported in patent US20200222474A1, “COMPOSITIONS AND METHODS FOR INCREASING PHYTOCHEMICAL BIOAVAILABLITY AND BIOACTIVITY” (North Carolina State University, priority 2017, published 2020).

Tested on: L. acidophilus NCFM
Assay: RNA-seq transcriptional analysis of L. acidophilus NCFM growing on plant glycosides
Type: cell-based, Lactobacillus acidophilus
[1] = gene LBA0282 (Hypothetical protein)
[2] = gene LBA0327 (Replication protein)
[3] = gene LBA0328 (Hypothetical protein)
[4] = gene LBA0330 (Hypothetical protein)
[5] = gene LBA0457 (Hypothetical protein)
[6] = gene LBA0485 (Hypothetical protein)
[7] = gene LBA0486 (Hypothetical protein)
[8] = gene LBA0487 (Hypothetical protein.)
[9] = gene LBA0492 (Hypothetical protein)
[10] = gene LBA0541 (Cadmium-transporting ATPase)
[11] = gene LBA0542 (Putative heavy-metal-transporting alpase)
[12] = gene LBA0543 (Hypothetical protein)
[13] = gene LBA0544 (Transcriptional regulator)
[14] = gene LBA0555 (Myosin-crossreactive antigen)
[15] = gene LBA0564 (HAD family hydrolase)
[16] = gene LBA0574 (ABC multi drug exporter)
[17] = gene LBA0575 (ABC multi drug exporter)
[18] = gene LBA0604 (Immunity protein)
[19] = gene LBA0605 (Putative hydrolase)
[20] = gene LBA0608 (Hypothetical protein)
[21] = gene LBA0631 (Hypothetical protein)
[22] = gene LBA0649 (Myosin-crossreactive antigen)
[23] = gene LBA0728 (Hypothetical protein LBA0728)
[24] = gene LBA1025 (Aldo/keto reductase family oxidoreductase)
[25] = gene LBA1026 (Aldo/keto reduetase family oxidoreductase)

O=c1ccc2cc(O[C@@H]3O[C@H](CO)[C@@H](O)[C@H](O)[C@H]3O)c(O)cc2o1 [Esculin]
Log2 differential normalized TPM ratio compared to glucose [1]: 2.1 | Log2 differential normalized TPM ratio compared to lactose [1]: 1.4 | Transcripts per million (rpm) [1]: 92.4 rpm | Log2 differential normalized TPM ratio compared to glucose [2]: 2.4 | Log2 differential normalized TPM ratio compared to lactose [2]: 2.1 | Transcripts per million (rpm) [2]: 43.4 rpm | Log2 differential normalized TPM ratio compared to glucose [3]: 1.9 | Log2 differential normalized TPM ratio compared to lactose [3]: 2 | Transcripts per million (rpm) [3]: 55.9 rpm | Log2 differential normalized TPM ratio compared to glucose [4]: 3.3 | Log2 differential normalized TPM ratio compared to lactose [4]: 2.9 | Transcripts per million (rpm) [4]: 211.2 rpm | Log2 differential normalized TPM ratio compared to glucose [5]: 2.1 | Log2 differential normalized TPM ratio compared to lactose [5]: 1.1 | Transcripts per million (rpm) [5]: 2243.1 rpm | Log2 differential normalized TPM ratio compared to glucose [6]: 2 | Log2 differential normalized TPM ratio compared to lactose [6]: −0.4 | Transcripts per million (rpm) [6]: 868.4 rpm | Log2 differential normalized TPM ratio compared to glucose [7]: 2.3 | Log2 differential normalized TPM ratio compared to lactose [7]: −0.5 | Transcripts per million (rpm) [7]: 1210.2 rpm | Log2 differential normalized TPM ratio compared to glucose [8]: 1 | Log2 differential normalized TPM ratio compared to lactose [8]: −0.3 | Transcripts per million (rpm) [8]: 69.1 rpm | Log2 differential normalized TPM ratio compared to glucose [9]: 3.7 | Log2 differential normalized TPM ratio compared to lactose [9]: 1.2 | Transcripts per million (rpm) [9]: 108.4 rpm | Log2 differential normalized TPM ratio compared to glucose [10]: 1.9 | Log2 differential normalized TPM ratio compared to lactose [10]: −0.3 | Transcripts per million (rpm) [10]: 138.8 rpm | Log2 differential normalized TPM ratio compared to glucose [11]: 1.9 | Log2 differential normalized TPM ratio compared to lactose [11]: −0.3 | Transcripts per million (rpm) [11]: 337.4 rpm | Log2 differential normalized TPM ratio compared to glucose [12]: 2 | Log2 differential normalized TPM ratio compared to lactose [12]: −0.4 | Transcripts per million (rpm) [12]: 278.7 rpm | Log2 differential normalized TPM ratio compared to glucose [13]: 1.6 | Log2 differential normalized TPM ratio compared to lactose [13]: −0.3 | Transcripts per million (rpm) [13]: 342.2 rpm | Log2 differential normalized TPM ratio compared to glucose [14]: 2 | Log2 differential normalized TPM ratio compared to lactose [14]: 0.1 | Transcripts per million (rpm) [14]: 186.9 rpm | Log2 differential normalized TPM ratio compared to glucose [15]: 1.4 | Log2 differential normalized TPM ratio compared to lactose [15]: 0.9 | Transcripts per million (rpm) [15]: 2.8 rpm | Log2 differential normalized TPM ratio compared to glucose [16]: 2.4 | Log2 differential normalized TPM ratio compared to lactose [16]: 2.1 | Transcripts per million (rpm) [16]: 490.6 rpm | Log2 differential normalized TPM ratio compared to glucose [17]: 2.2 | Log2 differential normalized TPM ratio compared to lactose [17]: 2 | Transcripts per million (rpm) [17]: 381 rpm | Log2 differential normalized TPM ratio compared to glucose [18]: −0.3 | Log2 differential normalized TPM ratio compared to lactose [18]: −0.8 | Transcripts per million (rpm) [18]: 12.5 rpm | Log2 differential normalized TPM ratio compared to glucose [19]: 2.4 | Log2 differential normalized TPM ratio compared to lactose [19]: 1.4 | Transcripts per million (rpm) [19]: 15.5 rpm | Log2 differential normalized TPM ratio compared to glucose [20]: 2.3 | Log2 differential normalized TPM ratio compared to lactose [20]: 1.2 | Transcripts per million (rpm) [20]: 183.9 rpm | Log2 differential normalized TPM ratio compared to glucose [21]: 2.9 | Log2 differential normalized TPM ratio compared to lactose [21]: −0.2 | Transcripts per million (rpm) [21]: 9527.2 rpm | Log2 differential normalized TPM ratio compared to glucose [22]: 1.9 | Log2 differential normalized TPM ratio compared to lactose [22]: 1.2 | Transcripts per million (rpm) [22]: 154.8 rpm | Log2 differential normalized TPM ratio compared to glucose [23]: 4.8 | Log2 differential normalized TPM ratio compared to lactose [23]: 3 | Transcripts per million (rpm) [23]: 70.6 rpm | Log2 differential normalized TPM ratio compared to glucose (gene LBA0861 (Polyferredoxin)): 2 | Log2 differential normalized TPM ratio compared to lactose (gene LBA0861 (Polyferredoxin)): 1.5 | Transcripts per million (rpm) (gene LBA0861 (Polyferredoxin)): 785.8 rpm | Log2 differential normalized TPM ratio compared to glucose (gene LBA1023 (Oxidoreductase)): 2.3 | Log2 differential normalized TPM ratio compared to lactose (gene LBA1023 (Oxidoreductase)): 2 | Transcripts per million (rpm) (gene LBA1023 (Oxidoreductase)): 911.4 rpm | Log2 differential normalized TPM ratio compared to glucose [24]: 2.7 | Log2 differential normalized TPM ratio compared to lactose [24]: 2.7 | Transcripts per million (rpm) [24]: 210.8 rpm | Log2 differential normalized TPM ratio compared to glucose [25]: 2.3 | Log2 differential normalized TPM ratio compared to lactose [25]: 1.9 | Transcripts per million (rpm) [25]: 162.5 rpm | Log2 differential normalized TPM ratio compared to glucose (gene LBA1027 (Oxidoreductase)): 2.1 | Log2 differential normalized TPM ratio compared to lactose (gene LBA1027 (Oxidoreductase)): 0.6
